Results from the NIST ThermoML archive (doi:10.1021/je200030k).
Numbers after ± are expanded uncertainties.

Assays:
[1] = refractive index (Na D-line) (dimensionless); conditions: 101.33 kPa, Liquid, Standard Abbe refractometry
[2] = 101.33 kPa, Liquid, Vibrating tube method

| SMILES | refractive index ([1]; 298.15 K) | refractive index ([1]; 303.15 K) | refractive index ([1]; 308.15 K) | refractive index ([1]; 313.15 K) | mass density ([2]; 298.15 K) | mass density ([2]; 303.15 K) | mass density ([2]; 308.15 K) | mass density ([2]; 313.15 K) |
| --- | --- | --- | --- | --- | --- | --- | --- | --- |
| CCCCn1cc[n+](C)c1.NCC(=O)[O-] [1-butyl-3-methylimidazolium glycinate] | 1.52 ± 0.002 | 1.519 ± 0.002 | 1.517 ± 0.002 | 1.517 ± 0.002 | 1260.26 ± 1.1 kg/m3 | 1257.2 ± 1.1 kg/m3 | 1254.1 ± 1.1 kg/m3 | 1250.77 ± 1.1 kg/m3 |
| CCCCO [butan-1-ol] | 1.397 ± 0.002 | 1.395 ± 0.002 | 1.393 ± 0.002 | 1.391 ± 0.002 | 806 ± 1 kg/m3 | 802.4 ± 1 kg/m3 | 798.2 ± 1 kg/m3 | 794.6 ± 1 kg/m3 |
| CC(C)O [propan-2-ol] | 1.375 ± 0.002 | 1.374 ± 0.002 | 1.373 ± 0.002 | 1.372 ± 0.002 | 781.2 ± 1 kg/m3 | 774 ± 1 kg/m3 | 765.8 ± 1 kg/m3 | 757.2 ± 1 kg/m3 |
